Test results from PubChem BioAssay (NCI).
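Test compounds were applied to cells in 96-well plates for 48 hours at 5 doses. GI50: concentration for 50% inhibition of growth. TGI marks complete inhibition of growth.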

Columns and labels:
Assay in all cases: growth of human tumour cells (NCI), 48 h
HCT-15 colon = system: HCT-15 colon
HS 578T breast = system: HS 578T breast
HT29 colon = system: HT29 colon
K-562 leukemia = system: K-562 leukemia
MCF7 breast = system: MCF7 breast
OVCAR-4 ovarian = system: OVCAR-4 ovarian
OVCAR-5 ovarian = system: OVCAR-5 ovarian
SK-MEL-2 melanoma = system: SK-MEL-2 melanoma
SNB-75 CNS = system: SNB-75 CNS
TK-10 renal = system: TK-10 renal

Row | SMILES | TGI (HCT-15 colon) | TGI (HS 578T breast) | TGI (HT29 colon) | TGI (K-562 leukemia) | TGI (MCF7 breast) | TGI (OVCAR-4 ovarian) | TGI (OVCAR-5 ovarian) | TGI (SK-MEL-2 melanoma) | TGI (SNB-75 CNS) | TGI (TK-10 renal) | GI50 (HCT-15 colon) | GI50 (HS 578T breast) | GI50 (HT29 colon) | GI50 (K-562 leukemia) | GI50 (MCF7 breast) | GI50 (OVCAR-4 ovarian) | GI50 (OVCAR-5 ovarian) | GI50 (SK-MEL-2 melanoma) | GI50 (SNB-75 CNS) | GI50 (TK-10 renal)
1 | O=C(c1ccccc1)C1N=NCC1c1ccc([N+](=O)[O-])cc1 (centres undefined) | > 100 µM | > 100 µM | > 100 µM | > 100 µM | 56.9 µM | > 100 µM | > 100 µM | > 100 µM | 69.2 µM | > 100 µM | – | – | – | – | – | – | – | – | – | –
2 | C=C1C(=O)O[C@H]2[C@H]1[C@H](OC(=O)/C(C)=C\C)CC(=C)[C@@H]1[C@H](O)[C@H]3O[C@@]3(C)[C@@]12O | > 100 µM | – | > 100 µM | > 100 µM | – | > 100 µM | – | > 100 µM | > 100 µM | > 100 µM | – | – | – | – | – | – | – | – | – | –
3 | COc1cc(Cl)cc(-c2nn(C(=O)NCCN3CCOCC3)cc2-c2ccncc2)c1 | > 100 µM | 41 µM | > 100 µM | > 100 µM | > 100 µM | > 100 µM | > 100 µM | 44.3 µM | 8.78 µM | > 100 µM | 3.79 µM | 6.38 µM | 3.98 µM | 4.12 µM | 3.54 µM | 12.6 µM | 37.8 µM | 10.9 µM | 1.73 µM | 8.46 µM
4 | C=CCC1([C@H](C)[C@@H](OC(C)=O)c2cc(OC)c(OC)c(OC)c2)C[C@@H](OC)CCC1=O (some centres undefined) | 40.8 µM | – | 38 µM | > 100 µM | – | 85.1 µM | – | 38.9 µM | 36 µM | > 100 µM | – | – | – | – | – | – | – | – | – | –
5 | CC(=O)NNc1nc(C)c(C(=O)NNC(=O)C(=O)Nc2ccccc2C#N)s1 | > 100 µM | – | > 100 µM | > 100 µM | – | > 100 µM | > 100 µM | > 100 µM | > 100 µM | > 100 µM | – | – | – | – | – | – | – | – | – | –
6 | COc1ccccc1NC(=O)CC(=O)N1N=C(C)C(N=Nc2ccc(S(N)(=O)=O)cc2)C1=O (centres undefined) | > 100 µM | – | > 100 µM | – | – | > 100 µM | > 100 µM | > 100 µM | > 100 µM | > 100 µM | – | – | – | – | – | – | – | – | – | –
7 | N#C/C(=C1\OC(=O)C(c2ccc(Br)cc2)=C1O)c1ccc(Br)cc1 | – | – | 34.5 µM | 61.7 µM | – | 34.3 µM | 33.2 µM | – | 32.4 µM | 36.7 µM | – | – | – | – | – | – | – | – | – | –
8 | COc1ccc(C(=O)/C=C/c2ccc(/C=C/c3cc(OC)c(OC)c(OC)c3)cc2)cc1 | > 100 µM | > 100 µM | > 100 µM | > 100 µM | 36.6 µM | 47.3 µM | > 100 µM | > 100 µM | 47.7 µM | – | 2.42 µM | 9.11 µM | 4.17 µM | 3.03 µM | 2.18 µM | 6.31 µM | 34.1 µM | 18.9 µM | 5.5 µM | –
9 | COc1ccc(-c2cc(=O)c3cc4c(cc3[nH]2)OCO4)c(OC)c1OC | > 100 µM | – | > 100 µM | > 100 µM | – | > 100 µM | – | > 100 µM | 82.2 µM | > 100 µM | – | – | – | – | – | – | – | – | – | –
10 | Cc1c(C(=O)/C=C/c2csc3ccccc23)[n+](=O)c2ccccc2n1[O-] | 4.4 µM | 5.22 µM | 4.13 µM | – | 8.18 µM | 4.83 µM | 2.94 µM | 4.23 µM | 3.34 µM | 6.09 µM | 1.83 µM | 1.56 µM | 2.2 µM | – | 2.28 µM | 1.98 µM | 1.47 µM | 2.06 µM | 1.38 µM | 2.79 µM
11 | CC(=O)NC(CCCNCc1ccccc1)C(=O)NCc1ccccc1 (centres undefined) | > 100 µM | – | > 100 µM | > 100 µM | – | > 100 µM | > 100 µM | > 100 µM | > 100 µM | > 100 µM | – | – | – | – | – | – | – | – | – | –
12 | C=C1C(=O)O[C@H]2[C@H]1CC/C(COC(=O)NCc1ccccc1OC)=C\CC[C@@]1(C)O[C@@H]21 | 2.47 µM | 19 µM | 3.43 µM | 6.07 µM | – | 4.92 µM | 5.44 µM | 3.89 µM | 13.2 µM | 3.48 µM | 1.04 µM | 3.4 µM | 1.22 µM | 0.821 µM | – | 1.78 µM | 2.29 µM | 1.71 µM | 2.44 µM | 1.79 µM
13 | N#CC(C(=O)/C(=N/NC(=O)c1ccccc1O)C(C#N)c1ccc(Cl)cc1)c1ccc(Cl)cc1 (centres undefined) | 37.7 µM | – | 24.6 µM | 79.1 µM | – | 33.9 µM | 34.3 µM | 30.1 µM | – | 31.3 µM | – | – | – | – | – | – | – | – | – | –
14 | CN(C(=O)C12C3C4C5C3C1(C(=O)O)C5C42)C(C)(C)C (centres undefined) | > 100 µM | – | > 100 µM | > 100 µM | – | > 100 µM | > 100 µM | > 100 µM | > 100 µM | > 100 µM | – | – | – | – | – | – | – | – | – | –
15 | COc1cc2c(cc1OC)C(N(C)C)C(c1ccccc1)=C2Cl (centres undefined) | 34.1 µM | – | 36.4 µM | > 100 µM | – | 65 µM | > 100 µM | 36 µM | 48.7 µM | > 100 µM | – | – | – | – | – | – | – | – | – | –
16 | COc1cccc(NC(=O)CC(=O)N2N=C(N(CCC#N)c3ccc(Cl)cc3)CC2c2ccccc2)c1 (centres undefined) | > 100 µM | – | > 100 µM | > 100 µM | – | > 100 µM | > 100 µM | > 100 µM | > 100 µM | > 100 µM | – | – | – | – | – | – | – | – | – | –
17 | COC(=O)/C=C/C=C(c1ccccc1)c1ccccc1 | 42.1 µM | 46 µM | > 100 µM | > 100 µM | > 100 µM | > 100 µM | > 100 µM | – | 53.1 µM | > 100 µM | 3.79 µM | 8.65 µM | 3.85 µM | 4 µM | 4.08 µM | 8.59 µM | 14 µM | – | 2.72 µM | 20.3 µM
18 | CC1=NOC(=O)/C1=C/c1ccccc1O | > 100 µM | – | > 100 µM | > 100 µM | – | > 100 µM | > 100 µM | > 100 µM | > 100 µM | > 100 µM | – | – | – | – | – | – | – | – | – | –
19 | c1cc(-c2cn3ccsc3n2)ccn1 | > 62 µM | – | > 100 µM | > 70.3 µM | – | > 100 µM | > 100 µM | > 100 µM | > 100 µM | > 100 µM | – | – | – | – | – | – | – | – | – | –
